Literature values as cited in US6891077B2, “Fibrinogen bandages and arterial bleeding models and methods of making and using thereof” (priority 2001, dated 2005).

Test system: coagulation and clot formation
Details: incorporated in or on fibrinogen dressings or bandages

SMILES: NCCCCCC(=O)O [ε-amino caproic acid]
- Effect on coagulation and clot formation as compared to fibrinogen bandages alone: decreased coagulation and clot formation
